Publication PMC7041945, “Misfolded proteins bind and activate death receptor 5 to trigger apoptosis during unresolved endoplasmic reticulum stress” (eLife, 2020)

Assays:
HCT116 cells = assay: Annexin V (and SytoxBlue) flow cytometry for apoptosis; format: cell-based, Homo sapiens; conditions: for Annexin V +, Sytox Blue + cells / Annexin V +, Sytox Blue - cells / Annexin V -, Sytox Blue - cells: transfected 24 hr
Protocol: Cells seeded in a 6-well plate were transfected with the specified plasmid for 24 hr and harvested via trypsinization in complete media to allow a 30 min recovery at 37°C. The samples were then centrifuged at 500xg for 5 min and resuspended In 150 μl of a 1:20 dilution of Annexin V-AlexaFluor 647 conjugate (Thermo Scientific #A23204). Samples were transferred to a 96-well U-bottom plate and incubated in the dark for 15 min at RT. The distribution of apoptotic cells was determined by flow cytometry on a BD LSR II.

GFP (340+341) = assay: qPCR of GFP transcript (expression of GFP-tagged construct); format: cell-based; conditions: 24 hr, Rep 2
[1] = tested on: caspase 8 in HCT116 lysates; assay: Caspase 8 activity (caspase glo 8) of cell lysates / IP inputs; format: cell-based, Homo sapiens; conditions: for Caspase 8 activity, fold change relative to GFP: AVG (n = 3 tech reps); for AVG fold change relative to GFP: average over lysate dilutions
Protocol: Cells harvested from a 6-well plate were resuspended in 100 μl of lysis buffer (30 mM HEPES pH 7.2, 150 mM NaCl, 1% Triton X-100) and lysed via needle shearing (25G, 10 passes) followed by a 30 min incubation on ice. Supernatant was collected after centrifuging at 1000xg for 5 min. For the caspase activity assay, 10 μl of supernatant diluted with lysis buffer (1:25, 1:50, 1:100 to stay within linear range of luminescence measurements) was incubated with 10 μl of the luminogenic caspase glo 8 substrate (Promega #PRG8200) in a 384-white walled plate (Corning 3574) for 45 min at RT before measuring luminescence on a Spectramax-M5 plate reader.

DR5 = assay: GFP immunoprecipitation: DR5 (FADD, caspase 8) recovered with GFP-tagged protein, Western blot; format: cell-based, Homo sapiens; conditions: for fraction IP'ed: beads/input
Protocol: 15 cm dishes were seeded with 4 million HCT116 cells and allowed to recover for 18 hr prior to transfection. Samples were then transfected for 24 hr with the GFP-tagged ER trafficked protein, cytosolic GFP, or empty vector. To harvest apoptotic and living cells for each sample, all media and washes were collected. Cells were scraped in 2 ml of cold PBS and combined with the media and washes. Samples were centrifuged to pellet cells, washed with 1 ml cold PBS, and flash frozen in liquid N2 prior to lysis.
The cell pellets were resuspended in 750 μl of 30 mM HEPES pH 7.2, 150 mM NaCl, 1% Triton X-100 with 1x Roche protease inhibitor cocktail (if used subsequently for caspase glo 8 assay) or with 5x Roche protease inhibitor cocktail (if used for immunoblotting). The cells were lysed by mechanical shearing through a 25G needle for 13–15 plunges followed by incubation on ice for 30 min. The lysate was centrifuged at 2000xg for 5 min to remove debris and then incubated with 30 μl of GFP-Trap magnetic agarose beads (Chromotek gtma-20) for 4 hr at 4°C. The beads were then washed with 750 μl of lysis buffer for 10 min at 4°C for three rounds.
For Western blots, samples were eluted by adding 35 μl of non-reducing SDS gel loading buffer (50 mM Tris-HCl (pH 6.8), 2% SDS, 0.1% bromophenol blue, 10% glycerol) and incubated for 10 min at 70°C. The beads were then magnetically removed from the eluted sample before adding DTT to a final concentration of 25 mM. The entire sample was loaded onto the gel and immunoblotted for DR5, caspase 8, and GFP, in that order.

[2] = empty + Tg, siRNA non-targeting, stain AnnexinV-647, 2018-06-27
[3] = siRNA scrambled, 2017-01-17 Replicate
[4] = siRNA scrambled, 2018-06-21 Rep 1
[5] = siRNA scrambled, 2018-06-21 Rep 2
[6] = siRNA scrambled, mean of 3 replicates
[7] = GFP IP, HCT116, average of Rep 1 and Rep 2, SEM in separate column
[8] = GFP IP, HCT116, band intensity, Rep 1

## C/C=C(/C)C(=O)O[C@H]1C(C)=C2[C@H]([C@@H]1OC(=O)CCCCCCC)[C@@](C)(OC(C)=O)C[C@H](OC(=O)CCC)[C@@]1(O)[C@H]2OC(=O)[C@@]1(C)O [thapsigargin, reference compound]
HCT116 cells; [2]
  AnnexinV+ (Statistic): 18.2
  AnnexinV- (Statistic): 81.8
HCT116 cells; empty w Tg vs. empty
  Difference between means: 28 ± 7.5
HCT116 cells; no siDR5, mean ± SEM, N=3, values agree with avg Annexin V+
  Mean ± SEM (Prism T-tests, Annexin V for MPZ-GFP): 35 ± 6.7 N=3
HCT116 cells; [3]
  Annexin V+: 48.1
  Annexin V-: 51.9
HCT116 cells; siRNA scrambled, 2018-01-17 MPZ, gate all cells/Single Cells/AnnexinV+, Tg sample with empty construct
  AnnexinV+ (Statistic, single cells): 48.1
HCT116 cells; siRNA scrambled, 2018-01-17 MPZ, gate all cells/Single Cells/AnnexinV-, Tg sample with empty construct
  AnnexinV- (Statistic, single cells): 51.9
HCT116 cells; siRNA scrambled, 2018-01-17 MPZ, gate all cells/Single Cells/GFP+, Tg sample with empty construct
  GFP+ (Statistic, single cells): 0.011
HCT116 cells; siRNA scrambled, 2018-01-17 MPZ, gate all cells/Single Cells/GFP-, Tg sample with empty construct
  GFP- (Statistic, single cells): 100
HCT116 cells; siRNA scrambled, 2018-01-17 MPZ, gate all cells/Single Cells/Q1, Tg sample with empty construct
  Q1: APC-A- , DAPI-A+ (Statistic, single cells): 10.8
HCT116 cells; siRNA scrambled, 2018-01-17 MPZ, gate all cells/Single Cells/Q2, Tg sample with empty construct
  Q2: APC-A+ , DAPI-A+ (Statistic, single cells): 31.2
HCT116 cells; siRNA scrambled, 2018-01-17 MPZ, gate all cells/Single Cells/Q3, Tg sample with empty construct
  Q3: APC-A+ , DAPI-A- (Statistic, single cells): 13.1
HCT116 cells; siRNA scrambled, 2018-01-17 MPZ, gate all cells/Single Cells/Q4, Tg sample with empty construct
  Q4: APC-A- , DAPI-A- (Statistic, single cells): 45
HCT116 cells; siRNA scrambled, 2018-01-17 MPZ, gate all cells/Single Cells/SytoxBlue+, Tg sample with empty construct
  SytoxBlue+ (Statistic, single cells): 40.3
HCT116 cells; siRNA scrambled, 2018-01-17 MPZ, gate all cells/Single Cells/SytoxBlue-, Tg sample with empty construct
  SytoxBlue- (Statistic, single cells): 59.7
HCT116 cells; siRNA scrambled, 2018-01-17 MPZ, gate dead cells of all events, Tg sample with empty construct
  dead cells (Statistic): 26.5
HCT116 cells; siRNA scrambled, 2018-01-17 MPZ, gate dead cells/Single Cells/FITC-A+, Tg sample with empty construct
  FITC-A+ (Statistic, dead cells): 0.016
HCT116 cells; siRNA scrambled, 2018-01-17 MPZ, gate dead cells/Single Cells/FITC-A-, Tg sample with empty construct
  FITC-A- (Statistic, dead cells): 100
HCT116 cells; [4]
  Annexin V+: 32.2
  Annexin V-: 67.8
HCT116 cells; [5]
  Annexin V+: 25.7
  Annexin V-: 74.3
HCT116 cells; [6]
  avg Annexin V+: 35.3333
  avg Annexin V-: 64.6667
GFP (340+341); relative to empty traffo, mean of 3 replicates
  avg. fold induction GFP (340+341): 0.3377
GFP (340+341); relative to empty traffo, replicate 1
  fold induction GFP (340+341): 0.335
GFP (340+341); relative to empty traffo, replicate 2
  fold induction GFP (340+341): 0.3372
GFP (340+341); relative to empty traffo, replicate 3
  fold induction GFP (340+341): 0.341
GFP (340+341); replicate 1
  2^-(deltaCq) GFP (340+341): 5.66e-5
  Cq GFP (340+341): 32.8608
  Cq(sample) - avg Cq(GAPDH), GFP (340+341): 14.1088
GFP (340+341); replicate 2
  2^-(deltaCq) GFP (340+341): 5.698e-5
  Cq GFP (340+341): 32.8514
  Cq(sample) - avg Cq(GAPDH), GFP (340+341): 14.0993
GFP (340+341); replicate 3
  2^-(deltaCq) GFP (340+341): 5.761e-5
  Cq GFP (340+341): 32.8353
  Cq(sample) - avg Cq(GAPDH), GFP (340+341): 14.0832
[1]; HCT116, rep 1, no siRNA named, average of 4 dilutions
  average fold change relative to empty: 1.771 fold change
[1]; input, dilution 0.01, rep1
  fold change relative to empty: 1.802
[1]; input, dilution 0.01, rep2
  fold change relative to empty: 2.141
[1]; input, dilution 0.01, rep3
  fold change relative to empty: 1.451
[1]; input, dilution 0.02, rep1
  fold change relative to empty: 2.44
[1]; input, dilution 0.02, rep2
  fold change relative to empty: 1.968
[1]; input, dilution 0.02, rep3
  fold change relative to empty: 1.816
[1]; input, dilution 0.02, second listing, relative to avg. empty, average of rep1-rep3
  avg fold change: 2.105
[1]; input, dilution 0.02, second listing, rep2
  fold change relative to empty: 1.992
[1]; input, dilution 0.02, second listing, rep3
  fold change relative to empty: 1.959

## FTWRYQPEGGRDAISIFHYA [MPZ-ecto peptide-eGFP, expressed construct: MPZ ectodomain replaced by the MPZ-ecto peptide, GFP-tagged]
HCT116 cells; HCT116, 24 hr, relative to empty vector or WT
  annexin V staining: increased annexin V staining relative to the empty vector
HCT116 cells; + z-VAD
  Annexin V +, Sytox Blue + cells: 8.37% of cells
HCT116 cells; + z-VAD (20 μm [sic])
  Annexin V +, Sytox Blue - cells: 3.77% of cells
  Annexin V -, Sytox Blue - cells: 86.3% of cells
HCT116 cells; no z-VAD
  Annexin V +, Sytox Blue + cells: 19.1% of cells
  Annexin V +, Sytox Blue - cells: 11.5% of cells
  Annexin V -, Sytox Blue - cells: 65.3% of cells
DR5; [7]
  % IP'ed, average: 7.7348%
  fraction IP'ed, average: 0.07735
DR5; GFP IP, HCT116, band intensity, background subtracted, divided by dilution factor 0.1, Rep 2
  input (*dilution factor): 64608140
DR5; GFP IP, HCT116, band intensity, background subtracted, divided by dilution factor 0.25, Rep 2
  beads (*dilution factor): 5226200
DR5; [8]
  beads (*diluton factor): 10106176
  input (*dilution factor): 136930440
DR5; GFP IP, HCT116, Rep 1
  fraction IP'ed: 0.07381
DR5; GFP IP, HCT116, Rep 2
  fraction IP'ed: 0.08089
DR5; GFP IP, HCT116, n=2, from unpaired t test sheet
  Mean ± SEM of fraction IP'ed: 0.07735 ± 0.003543, n=2
DR5; HCT116, 24 hr post-transfection
  DR5 complex proteins in GFP immunoprecipitates: enriched for DR5 relative to the Glu-containing mutant peptides
DR5; Rep 1, DR5 blot densitometry of beads (GFP IP), background subtracted, adjusted for dilution factor 0.25
  DR5 beads (*diluton factor): 10106176
DR5; Rep 1, DR5 blot densitometry of input, background subtracted, adjusted for dilution factor 0.1
  DR5 input (*dilution factor): 136930440
DR5; Rep 1, GFP IP, beads over input
  DR5 fraction IP'ed: 0.07381
[1]; Rep 1, HCT116, ecto 400 ng, YYEE and Arom-to-E 200 ng
  Caspase 8 activity, fold change relative to GFP: 2.6
[1]; Rep 2, HCT116, ecto 400 ng, YYEE and Arom-to-E 200 ng
  Caspase 8 activity, fold change relative to GFP: 2.183
[1]; Rep 2, HCT116
  AVG fold change relative to GFP: 2.183 fold
[1]; Rep 3, HCT116, ecto 400 ng, YYEE and Arom-to-E 200 ng
  Caspase 8 activity, fold change relative to GFP: 2.309
[1]; Rep 3, HCT116
  AVG fold change relative to GFP: 2.309 fold
[1]; avg of n = 3 biol rep, HCT116, ecto 400 ng, YYEE and Arom-to-E 200 ng, SEM of n = 3 in own column
  Caspase 8 activity, fold change relative to GFP, avg of biological replicates: 2.364
